Consider one molecule from patent US9629816B2, “Small molecule therapeutic compounds targeting thioesterase deficiency disorders and methods of using the same” (The United States of America, as represented by the …, priority 2011, dated 2017).

Assay [1] concerns INCL fibroblasts. The assay can be described thus: Depletion of [35S]cysteine-labeled lipid thioesters in INCL fibroblasts. It is filed as cell-based, human. The note with it: treatment for 24 and 48 hours vs untreated control cells (FIG. 7). Here is the method:
(§1) Thus, this derivative was chosen for more extensive study of its ability to hydrolyze […] proteins, and to deplete lipid-extractable [^35S]cysteine thioesters from fibroblasts and lymphoblasts. INCL fibroblasts were obtained and cultured as described in Example 4. The cells were then labeled with [^35S]cysteine. Briefly, following incubation for six hours in medium lacking serum and cysteine/cystine, the cells were washed and then re-cultured for varying lengths of time in medium containing NtBuHA, with a change of medium every 12 hours. As controls, [^35S]cysteine-labeled cells were cultured in drug-free medium as well as medium containing 1M HA. Following incubation, cells were washed twice with cold PBS and then centrifuged at 2,250 g at 4° C. for 5 minutes. Lipid thioesters were then extracted from the cells and subject to analysis by high-performance thin layer chromatography. Briefly, the extracted fatty acyl esters were dissolved in chloroform:methanol (1:1) and an aliquot applied to a TLC plate and resolved using a mixture of chloroform:methanol:water (65:25:4). The plates were then dried and autoradiographs obtained.

Assay [2] has as its system INCL lymphoblasts. The assay can be described thus: Depletion of [35S]cysteine-labeled lipid thioesters / hydrolysis of S-acylated proteins in PPT1-deficient lymphoblasts. It is filed as cell-based, human. As to conditions: lymphoblasts of nine NCL patients; 48 hours vs untreated cells (FIG. 8). Here is the method:
as §1
The ability of NtBuHA to deplete [^35S]cysteine-thioester containing compounds was tested using [^35S]cysteine-labeled, immortalized lymphoblasts. […]

Assay [3] has as its system INCL lymphoblasts. Briefly: TEM analysis of GRODs in cultured INCL lymphoblasts. It is filed as cell-based, human. Here is the method:
(§2) Transmission electron microsocopy (TEM) of INCL lymphoblasts and fibroblasts was performed. Briefly, cells were first treated with 250 μM NtBuHA for 3 weeks. Medium was replaced with fresh 250 μM of NtBuHA at every 72 hours. After treatment, cells were fixed with 2.5% glutaraldehyde in sodium phosphate buffer, washed three times with Millonig's phosphate buffer and stained with 2.5% uranyl acetate. Ultra-thin sections were then prepared using AO Reichert Ultracut ultramicrotome, stained with lead citrate and examined by using Zeiss EM10 CA.
(§3) Accordingly, untreated- and NtBuHA-treated cultured INCL lymphoblasts were analyzed using TEM.
For a therapeutic agent to be effective for INCL it must not only mediate depletion of ceroid by cleaving thioester linkage in S-acylated proteins but it must also prevent re-accumulation of ceroid. […] Some of these cultures were washed with PBS and then cultured for an additional 3 weeks in medium without NtBuHA before being analyzed by TEM.

Assay [4] concerns INCL fibroblasts. Briefly: TEM analysis of GRODs in cultured INCL fibroblasts. It counts as cell-based, human. The note with it: 250 μM for 3 weeks vs untreated fibroblasts (FIG. 10). Here is the method:
as §2, §3

Assay [5] concerns PPT1-KO mice. The assay can be described thus: Autofluorescence of brain tissues of PPT1-KO mice. It counts as in vivo, mouse. As to conditions: vs untreated PPT1-KO mice (FIG. 13). Here is the method:
All animal experiments were performed according to the institutional guidelines after an animal protocol was approved by the Animal Care and Use Committee of the National Institute of Child Health and Development, National Institutes of Health. PPT1-KO mice (a gift from Dr. S. L. Hofmann, University of Texas Southwestern Medical Center at Dallas, Dallas, Tex., USA) were generated by targeted disruption of the last exon in the PPT1 gene in embryonic stem (ES) cells. These mice were subsequently backcrossed for 10 generations with wild type C57BL/6 mice in order to obtain congenic C57 background and a breeding pair was provided by Dr. Mark Sands to start the inventors' colony. Animals were housed and maintained in a pathogen-free facility. Three-month old PPT-KO mice were given NtBuHA in their drinking water (1 mM NtBuHA and 1 mM NaCl).
Accumulation of intracellular autofluorescent lipopigment material in the brain and other tissues is a characteristic pathological finding in INCL patients and in PPT1-KO mice. Given this, it was hypothesized that NtBuHA-mediated depletion of GRODs may also reduce the intensity of autofluorescence in brain tissues of NtBuHA-treated PPT1-KO mice. Accordingly, a comparison of the autofluorescence of brain tissues from NtBuHA-treated PPT 1-KO mice, untreated PPT 1-KO mice, and wild-type litter-mates was performed.

Assay [6] deals with PPT1-KO mice. The assay can be described thus: Western blot of caspase-9 and cleaved PARP-1 in cortical tissue homogenates of PPT1-KO mice. It counts as in vivo, mouse. As to conditions: cortical tissue homogenates (FIG. 17). Here is the method:
Western blot analysis was performed as using standard methodology. Briefly 30 μg of protein was resolved in 4-12% Bis tris gel (Invitrogen) and electro-transferred in PVDF membrane. The membranes were blocked with 5% non fat dried milk for 1 hour at room temperature and were then probed overnight with primary antibody at 4 C. After washing the blots were incubated with horseradish peroxidase conjugated secondary antibody (Santacruz Biotechnology) for 1 hour at room temperature and developed using enhanced chemiluminescences detection reagents (Pierce). Primary antibodies used in this study were caspase-3, caspase-9 (cell signaling) SOD2, catalase, β-Actin (US Biologicals).
It has been reported that postmortem brain tissues from INCL patients as well as those from PPT1-KO mice manifest high levels of oxidative stress, which induces neuronal apoptosis contributing to neuropathology. […] Accordingly, a terminal deoxynucleotidyl transferase dUTP nick end labeling (TUNEL) assay was performed using cortical tissue sections from wild-type, untreated PPT1-KO and NtBuHA-treated PPT1-KO mice to determine the level of apoptosis. […] Quantitative analysis of the NeuN-positive cells in brain tissues from wild-type, untreated and NtBuHA-treated PPT1-KO mice (FIG. 18D) confirmed the visual assessment.

Assay [7] has as its system PPT1-KO mice. The assay can be described thus: Open field test, exploratory behavior of PPT1-KO mice. It counts as in vivo, mouse. The note with it: 6-month and 8-month old PPT1-KO mice (FIG. 19E-F). From the text:
Since NtBuHA functionally mimics PPT1, the inventors tested 6-month and 8-month old wild-type, untreated- and NtBuHA-treated PPT1-KO mice for motor coordination and exploratory behavior. The Rotarod Performance Test, which measures parameters such as riding time (seconds) and/or endurance was used to measure motor coordination. The open field test was utilized to evaluate the exploratory behavior.

With `CC(C)(C)NO` [NtBuHA, N-(tert-Butyl)hydroxylamine], in assay [1], the “intensity of [35S]cysteine-labeled lipid extractable thioester compounds” value is “significantly reduced intensity”. Moreover, the “intensity of [35S]cysteine-labeled lipid bands” value in assay [2] was “clear reduction in the intensity”. For the same molecule, the “GRODs in INCL lymphoblasts” value in assay [3] (250 μM for 3 weeks vs untreated controls (FIG. 9A-C)) is on record as “either no GRODs, FIG. 9B, or a substantially reduced number of GRODs that were considerably smaller in size”. Further, the “GRODs after withdrawal of treatment” value in assay [3] (3 weeks treatment, then additional 3 weeks in medium without NtBuHA (FIG. 9D, 11)) is listed as “withdrawal from the culture medium caused reaccumulation”. Further, the “GRODs in INCL fibroblasts” value in assay [4] was “significantly lower number of GRODs with markedly reduced size and density”. Also, the “autofluorescence of brain tissues” value in assay [5] was “markedly reduced autofluorescence”. For the same molecule, the “caspase-9 and cleaved PARP-1 level” value in assay [6] was “marked reduction in caspase-9 and cleaved PARP-1 level”. Further, in assay [7], the “exploratory behavior (open field)” value was “retained near normal motor function (FIG. 19A-D) as well as exploratory behavior”.
